From patent US7741362B2, “Somatostatin receptor 1 and/or 4 selective agonists and antagonists” (Siegfried Wurster, priority 2003, dated 2010)
Read-outs that look alike come from different tables or passages of the source.

Legend:
[1] = target: T1, human somatostatin receptor subtype SSTR4 (Homo sapiens, UniProt P31391); test: Competition binding with 125I-LTT-sst-28, human somatostatin receptor subtype SSTR4
T1 construct: expressed in transfected cells; host or cells: CHO cells (membranes)
Method: (§1) The affinity of the compounds of the invention for the five human somatostatin receptor subtypes (SSTR1, SSTR2, SSTR3, SSTR4, and SSTR5) was determined in competition binding assays with (^125I-Tyr)-[Leu^8,DTrp^22]-somatostatin-28 (^125I-LTT-sst-28). The biological material for these experiments consisted of membranes from Chinese hamster ovary (CHO) cells stably transfected with one of the five human somatostatin receptor subtypes. Membranes (3-20 μg of total protein per sample) and trace amount of ^125I-LTT-sst-28 were incubated in 10 mM Hepes, 1 mM EDTA, 5 mM MgCl2, 5 mg/ml of BSA and 30 μg/ml bacitracin, pH 7.6 with six concentrations of the compounds. Each concentration was run in duplicate. Nonspecific binding was defined by 1 μM somatostatin-14 (sst-14) and corresponded to 5-25% of total binding. After 60 min at room temperature, incubations were terminated by rapid vacuum filtration through GF/B glass fiber filter mats (presoaked at 4° C. in 200 ml of 10 mM Hepes, 1 mM EDTA, 5 mM MgCl2, pH 7.6) and three 5 ml washes with ice-cold wash buffer (20 mM TRIS, 1 mM EDTA, 5 mM MgCl2, pH 7.4). The filters were then dried, impregnated with scintillate and their radioactivity was measured by scintillation counting. The analysis of the experiments was carried out by nonlinear least square curve fitting. Affinity constants (Ki) were calculated from the IC50 values according to the Cheng-Prusoff's equation (Cheng and Prusoff, 1973). Experiments were repeated a minimum of three times.

[2] = target: T2, human somatostatin receptor subtype SSTR2 (Homo sapiens, UniProt P30874); test: Competition binding with 125I-LTT-sst-28, human somatostatin receptor subtype SSTR2; details: membranes from CHO cells stably transfected with human SSTR2, Cheng-Prusoff
T2 construct: expressed in transfected cells; host or cells: CHO cells (membranes)
T2 sequence (P30874 whole entry): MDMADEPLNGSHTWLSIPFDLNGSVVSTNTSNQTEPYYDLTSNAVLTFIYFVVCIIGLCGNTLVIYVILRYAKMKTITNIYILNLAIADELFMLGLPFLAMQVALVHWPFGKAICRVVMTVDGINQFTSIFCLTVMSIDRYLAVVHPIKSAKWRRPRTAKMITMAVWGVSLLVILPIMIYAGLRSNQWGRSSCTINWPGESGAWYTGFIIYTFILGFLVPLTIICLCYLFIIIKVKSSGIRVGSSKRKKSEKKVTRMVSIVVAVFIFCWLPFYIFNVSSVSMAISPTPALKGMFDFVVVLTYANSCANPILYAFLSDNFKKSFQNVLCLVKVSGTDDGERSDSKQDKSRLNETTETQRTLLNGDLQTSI
Method: as §1, with “The analysis of the experiments was carried out by nonlinear least square curve fitting.” left out, “Experiments were repeated a minimum of three times.” left out

[3] = target: T3, human somatostatin receptor subtype SSTR1 (Homo sapiens, UniProt P30872); test: Competition binding with 125I-LTT-sst-28, human somatostatin receptor subtype SSTR1
T3 construct: expressed in transfected cells; host or cells: CHO cells (membranes)
T3 sequence (P30872 whole entry): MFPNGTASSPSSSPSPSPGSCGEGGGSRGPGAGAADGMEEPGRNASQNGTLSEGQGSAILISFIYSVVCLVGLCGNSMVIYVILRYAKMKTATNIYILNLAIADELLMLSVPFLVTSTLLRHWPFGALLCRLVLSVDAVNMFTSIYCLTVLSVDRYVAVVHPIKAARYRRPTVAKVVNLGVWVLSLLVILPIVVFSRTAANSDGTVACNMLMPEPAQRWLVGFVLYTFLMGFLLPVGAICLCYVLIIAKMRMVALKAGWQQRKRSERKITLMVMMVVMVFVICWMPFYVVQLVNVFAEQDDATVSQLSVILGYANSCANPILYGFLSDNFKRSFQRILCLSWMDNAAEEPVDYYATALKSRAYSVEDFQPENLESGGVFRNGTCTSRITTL
Method: as §1

[4] = target: T4, human somatostatin receptor subtype SSTR3 (Homo sapiens, UniProt P32745); test: Competition binding with 125I-LTT-sst-28, human somatostatin receptor subtype SSTR3; details: membranes from CHO cells stably transfected with human SSTR3, Cheng-Prusoff
T4 construct: expressed in transfected cells; host or cells: CHO cells (membranes)
T4 sequence (P32745 whole entry): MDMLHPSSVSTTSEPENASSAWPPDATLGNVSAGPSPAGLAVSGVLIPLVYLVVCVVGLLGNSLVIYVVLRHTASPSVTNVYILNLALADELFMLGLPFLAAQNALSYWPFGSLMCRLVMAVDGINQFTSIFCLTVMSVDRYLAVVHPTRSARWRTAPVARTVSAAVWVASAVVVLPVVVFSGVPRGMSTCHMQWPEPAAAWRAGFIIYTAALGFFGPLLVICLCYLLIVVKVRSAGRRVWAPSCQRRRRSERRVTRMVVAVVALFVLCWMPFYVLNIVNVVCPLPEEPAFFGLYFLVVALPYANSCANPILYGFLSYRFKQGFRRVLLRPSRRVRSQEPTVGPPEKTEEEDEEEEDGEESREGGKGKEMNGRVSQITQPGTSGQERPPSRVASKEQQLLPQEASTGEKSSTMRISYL
Method: as §1, with “The analysis of the experiments was carried out by nonlinear least square curve fitting.” left out, “Experiments were repeated a minimum of three times.” left out

[5] = target: T5, human somatostatin receptor subtype SSTR5 (Homo sapiens, UniProt P35346); test: Competition binding with 125I-LTT-sst-28, human somatostatin receptor subtype SSTR5; details: membranes from CHO cells stably transfected with human SSTR5, Cheng-Prusoff
T5 construct: expressed in transfected cells; host or cells: CHO cells (membranes)
T5 sequence (P35346 whole entry): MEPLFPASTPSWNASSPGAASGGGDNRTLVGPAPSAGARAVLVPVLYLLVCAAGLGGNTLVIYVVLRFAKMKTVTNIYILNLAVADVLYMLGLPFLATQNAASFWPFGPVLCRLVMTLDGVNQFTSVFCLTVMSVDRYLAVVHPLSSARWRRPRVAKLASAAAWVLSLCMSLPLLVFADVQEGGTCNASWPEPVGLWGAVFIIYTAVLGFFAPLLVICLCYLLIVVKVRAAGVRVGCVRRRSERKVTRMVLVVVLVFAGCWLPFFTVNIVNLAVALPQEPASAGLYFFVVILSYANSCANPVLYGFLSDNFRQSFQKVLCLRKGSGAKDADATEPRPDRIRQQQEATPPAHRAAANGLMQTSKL
Method: as §1, with “The analysis of the experiments was carried out by nonlinear least square curve fitting.” left out, “Experiments were repeated a minimum of three times.” left out

[6] = same protocol, less than 300 nM, read-out: Ki for SSTR4 (bound)
[7] = membranes from CHO cells stably transfected with human SSTR4, 125I-LTT-sst-28, Cheng-Prusoff, read-out: Ki (SSTR4)
[8] = same protocol, less than 300 nM, read-out: Ki for SSTR1 (bound)

T1 sequence (P31391 whole entry): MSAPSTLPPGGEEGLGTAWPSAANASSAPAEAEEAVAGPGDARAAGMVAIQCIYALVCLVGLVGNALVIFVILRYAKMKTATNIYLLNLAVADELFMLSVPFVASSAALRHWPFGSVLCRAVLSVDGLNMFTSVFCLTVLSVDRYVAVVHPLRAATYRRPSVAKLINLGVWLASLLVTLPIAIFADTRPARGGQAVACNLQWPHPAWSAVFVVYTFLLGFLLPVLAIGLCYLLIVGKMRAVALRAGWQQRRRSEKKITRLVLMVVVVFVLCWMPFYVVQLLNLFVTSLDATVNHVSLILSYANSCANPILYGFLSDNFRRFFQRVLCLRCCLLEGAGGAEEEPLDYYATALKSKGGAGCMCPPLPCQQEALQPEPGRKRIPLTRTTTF

Ki [1, 6] [nM]	Ki [3, 8] [nM]	SMILES	further results
< 300	–	NCC[C@H](NS(=O)(=O)c1cccc2ccccc12)C(=O)N[C@@H](Cc1ccccc1)C(N)=O [Compound 10, 4-amino-N-((S)-1-carbamoyl-2-phenylethyl)-(S)-2-(N′-(1-naphthalenesulfonyl)amino)butanamide]	–
–	< 300	Cc1ccc(S(=O)(=O)N[C@@H](CCNC2CCCCC2)C(=O)NCc2ccccc2)c2ccccc12 [Compound 11, N-benzyl-4-N′-cyclohexylamino-(S)-2-(N″-(4-methyl-1-naphthalenesulfonyl)amino)butanamide]	–
< 300	–	Cc1ccc(S(=O)(=O)N[C@@H](CCN)C(=O)N[C@H](C(N)=O)C(C)C)c2ccccc12 [Compound 13, 4-amino-N-((S)-1-carbamoyl-2-methylpropyl)-(S)-2-(N′-(4-methyl-1-naphthalenesulfonyl)amino)butanamide]	–
< 300	–	CCc1cc(Br)ccc1S(=O)(=O)NC(CCN)C(=O)NC(Cc1ccccc1)C(N)=O [Compound 14, 4-amino-(S)-2-N-(4-bromo-2-ethylbenzenesulfonyl)-amino-N′-((S)-1-carbamoyl-2-phenylethyl)butanamide]	–
–	< 300	N=C(N)NCCC[C@H](NS(=O)(=O)c1ccc2ccccc2c1)C(=O)N[C@@H](Cc1ccccc1)C(N)=O [Compound 15, N-((S)-1-carbamoyl-2-phenylethyl)-5-guanidino-(S)-2-(N′-(2-naphthalenesulfonyl)amino)pentanamide]	–
< 300	–	N=C(N)NCCC[C@H](NS(=O)(=O)c1cccc(-c2ccccc2)c1)C(=O)N[C@@H](Cc1ccccc1)C(N)=O [Compound 16, N-((S)-1-carbamoyl-2-phenylethyl)-5-guanidino-(S)-2-(N′-(3-phenylbenzenesulfonyl)amino)pentanamide]	–
–	< 300	Cc1ccc(S(=O)(=O)NC(CCN)C(=O)NC2CCCc3ccccc32)c2ccccc12 [Compound 18, 4-amino-(S)-2-N-(4-methyl-1-naphthalenesulfonyl)-amino-N′-(1,2,3,4-tetrahydro-1-naphthyl)butanamide]	–
< 300	–	Cc1ccc(S(=O)(=O)N[C@@H](CCCN)C(=O)NC2(C(N)=O)Cc3ccccc3C2)c2ccccc12 [Compound 19, 5-amino-N-(2-(2-carbamoyl)indanyl)-(S)-2-(N′-(4-methyl-1-naphthalenesulfonyl)amino)pentanamide]	–
< 300	–	Cc1ccc(S(=O)(=O)N[C@@H](CCCN)C(=O)NCCc2c[nH]c3ccccc23)c2ccccc12 [Compound 20, 5-amino-N-(2-(1H-indol-3-yl)ethyl)-(S)-2-(N′-(4-methyl-1-naphthalenesulfonyl)amino)pentanamide]	–
–	< 300	Cc1ccc(S(=O)(=O)N[C@@H](CCCN)C(=O)N[C@@H](Cc2cccc(Cl)c2)C(N)=O)c2ccccc12 [Compound 21, 5-amino-N-((S)-1-carbamoyl-2-(3-chlorophenyl)ethyl)-(S)-2-(N′-(4-methyl-1-naphthalenesulfonyl)amino)-pentanamide]	–
–	< 300	Cc1ccc(S(=O)(=O)NC(CCCN)C(=O)NC2(C(N)=O)CCc3ccccc3C2)c2ccccc12 [Compound 22, 5-amino-N-(2-(2-carbamoyl)-1,2,3,4-tetrahydronaphthyl)-(S)-2-(N′-(4-methyl-1-naphthalenesulfonyl)amino)-pentanamide]	–
–	< 300	CNCC[C@H](NS(=O)(=O)c1ccc(C)c2ccccc12)C(=O)NCCc1cccc(Cl)c1 [Compound 23, N-(2-(3-chlorophenyl)ethyl)-4-N′-methylamino-(S)-2-(N″-(4-methyl-1-naphthalenesulfonyl)amino)-butanamide]	–

Second part, the molecule before the results:

SMILES	Ki [1, 6] [nM]	Ki [3, 8] [nM]	further results
Cc1ccc(S(=O)(=O)N[C@@H](CCN)C(=O)NC2CCCCC2)c2ccccc12 [Compound 1, 4-amino-N-cyclohexyl-(S)-2-(N′-(4-methyl-1-naphthalenesulfonyl)amino)butanamide]	< 300	–	–
Cc1ccc(S(=O)(=O)N[C@@H](CCN)C(=O)N[C@@H](Cc2ccccc2)C(N)=O)c2ccccc12 [Compound 2, 4-amino-N-(S)-1-carbamoyl-2-phenylethyl-(S)-2-(N′-(4-methyl-1-naphthalenesulfonyl)amino)butanamide]	–	–	Ki [1, 7]: 1.2 ± 0.4 nM; Ki [2]: > 5000 nM
Cc1ccc(S(=O)(=O)N[C@@H](CCNC(C)C)C(=O)NCc2ccccc2)c2ccccc12 [Compound 3, N-benzyl-4-(N′-isopropyl)amino-(S)-2-(N″-(4-methyl-1-naphthalenesulfonyl)amino)butanamide]	< 300	< 300	–
Cc1ccc(S(=O)(=O)N[C@@H](CCNC(=N)N)C(=O)NCc2ccccc2)c2ccccc12 [Compound 4, N-benzyl-4-guanidino-(S)-2-(N′-(4-methyl-1-naphthalenesulfonyl)amino)butanamide]	< 300	–	–
Cc1ccc(S(=O)(=O)N[C@@H](CCCNC(=N)N)C(=O)N[C@@H](Cc2ccccc2)C(N)=O)c2ccccc12 [Compound 5, N-((S)-1-carbamoyl-2-phenylethyl)-5-guanidino-(S)-2-(N′-(4-methyl-1-naphthalenesulfonyl)amino)pentanamide]	< 300	< 300	–
Cc1ccc(S(=O)(=O)N[C@@H](CCCNC(=N)N)C(=O)N[C@H](C(N)=O)C(c2ccccc2)c2ccccc2)c2ccccc12 [Compound 6, N-((S)-1-carbamoyl-2,2-diphenylethyl)-5-guanidino-(S)-2-(N′-(4-methyl-1-naphthalenesulfonyl)amino)pentanamide]	< 300	< 300	–
Cc1ccc(S(=O)(=O)N[C@@H](CCCN)C(=O)N[C@@H](Cc2ccccc2)C(N)=O)c2ccccc12 [Compound 7, 5-amino-N-((S)-1-carbamoyl-2-phenylethyl)-(S)-2-(N′-(4-methyl-1-naphthalenesulfonyl)amino)pentanamide]	< 300	< 300	–
CCc1ccc(S(=O)(=O)N[C@@H](CCN)C(=O)N[C@@H](Cc2ccccc2)C(N)=O)c2ccccc12 [Compound 8, 4-amino-N-((S)-1-carbamoyl-2-phenylethyl)-(S)-2-(N′-(4-ethyl-1-naphthalenesulfonyl)amino)butanamide]	< 300	–	–
Cc1ccc(S(=O)(=O)N[C@@H](CCN)C(=O)N[C@H](C(N)=O)C(c2ccccc2)c2ccccc2)c2ccccc12 [Compound 9, 4-amino-N-((S)-1-carbamoyl-2,2-diphenylethyl)-(S)-2-(N′-(4-methyl-1-naphthalenesulfonyl)amino)butanamide]	< 300	–	–
CCCCOc1ccc(S(=O)(=O)NC(CCCNC(=N)N)C(=O)NC(Cc2ccccc2)C(N)=O)cc1 [Compound 12, (S)-2-N-(4-butoxybenzenesulfonyl)amino-N′-((S)-1-carbamoyl-2-phenylethyl)-5-guanidinopentanamide]	–	< 300	–
Cc1ccc(S(=O)(=O)NC(CCCNC(C)C)C(=O)NC2CCCc3ccccc32)c2ccccc12 [Compound 17, 5-N-isopropylamino-(S)-2-N′-(4-methyl-1-naphthalene-sulfonyl)amino-N″-(1,2,3,4-tetrahydro-1-naphthyl)-pentanamide]	–	–	Ki ([3]; membranes from CHO cells stably transfected with human SSTR1, 125I-LTT-sst-28, Cheng-Prusoff, read-out: Ki (SSTR1)): 1 ± 0.4 nM; Ki [1, 7]: 84 ± 23 nM; Ki [4]: > 2000 nM; Ki [2]: > 10000 nM; Ki [5]: > 10000 nM
